This passage reports IC50 results from ChEMBL document CHEMBL1136544, “3-(2-carboxyethyl)-4,6-dichloro-1H-indole-2-carboxylic acid: an allosteric inhibitor of fructose-1,6-bisphosphatase at the AMP site” (Bioorg Med Chem Lett, 2003).

Each structure is given as a SMILES string.

Experiment [1] is described as follows: Inhibitory activity against Fructose-1,6-bisphosphatase (F16BPase) in human liver. It is filed as tissue-based.
For experiment [2], the target named is T1, Fructose-1,6-bisphosphatase 1 (Sus scrofa, UniProt P00636).
T1 sequence (P00636 whole entry): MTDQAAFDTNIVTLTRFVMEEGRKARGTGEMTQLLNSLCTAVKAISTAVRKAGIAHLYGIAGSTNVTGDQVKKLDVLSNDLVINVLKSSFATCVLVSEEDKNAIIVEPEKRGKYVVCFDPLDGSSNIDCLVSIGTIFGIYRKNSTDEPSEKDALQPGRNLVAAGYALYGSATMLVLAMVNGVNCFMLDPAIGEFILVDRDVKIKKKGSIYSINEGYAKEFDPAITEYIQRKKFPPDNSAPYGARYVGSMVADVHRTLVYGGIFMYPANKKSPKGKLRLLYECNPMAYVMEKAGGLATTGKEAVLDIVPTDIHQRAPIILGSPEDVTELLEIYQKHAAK
Briefly: Inhibitory activity against Fructose-1,6-bisphosphatase (F16BPase) in porcine kidney. It is filed as tissue-based.

Experiment [3] is described as follows: Inhibitory activity against Fructose-1,6-bisphosphatase (F16BPase) in rabbit liver. It is filed as tissue-based, Oryctolagus cuniculus.
A short description of experiment [4]: Inhibitory activity against Fructose-1,6-bisphosphatase (F16BPase) in rat liver. Type of experiment: tissue-based.

For `CN(C)C(=O)c1[nH]c2cc(Cl)cc(Cl)c2c1CCC(=O)O`, in experiment [1], the 50% inhibitory concentration (IC50) is over 10000 nM. As for `O=C(O)c1[nH]c2cc(Cl)cc(Cl)c2c1CCCO`, in experiment [1], the midpoint of inhibition, the IC50, lay at 2700 nM.

In experiment [1], `O=C(O)CCCc1c(C(=O)O)[nH]c2cc(Cl)cc(Cl)c12` yielded an IC50 of 1000 nM.

Regarding `Cn1c(C(=O)O)c(CCC(=O)O)c2c(Cl)cc(Cl)cc21`, the IC50 in experiment [1] was over 10000 nM. On the same count and under the same terms, in the case of `COC(=O)CCc1c(C(=O)O)[nH]c2cc(Cl)cc(Cl)c12` it was 7000 nM; in that of `O=C(O)CCCCc1c(C(=O)O)[nH]c2cc(Cl)cc(Cl)c12`, 1200 nM. Still for that read-out and setting: the same measure for `O=C(O)Cc1c(C(=O)O)[nH]c2cc(Cl)cc(Cl)c12`: 2500 nM. Still for that read-out and setting: in the case of `NC(=O)CCc1c(C(=O)O)[nH]c2cc(Cl)cc(Cl)c12` it was 2200 nM; in that of `NC(=O)c1[nH]c2cc(Cl)cc(Cl)c2c1CCC(=O)O`, over 10000 nM; in that of `O=C(O)CCc1c(CO)[nH]c2cc(Cl)cc(Cl)c12`, over 10000 nM.

As to `O=C(CCc1c(C(=O)O)[nH]c2cc(Cl)cc(Cl)c12)NO`, inhibition in experiment [1] was half-maximal at 1500 nM (IC50). On the same count and under the same terms, the same measure for `CN(C)C(=O)CCc1c(C(=O)O)[nH]c2cc(Cl)cc(Cl)c12`: 1700 nM; for `O=C(O)CCc1c(C(=O)NO)[nH]c2cc(Cl)cc(Cl)c12`: over 10000 nM. Still for that read-out and setting: in the case of `CCOC(=O)c1[nH]c2cc(Cl)cc(Cl)c2c1CCC(=O)O` it was over 10000 nM. With `O=C(O)CCc1c(C(=O)O)[nH]c2cc(Cl)cc(Cl)c12`, the concentration for half-maximal inhibition (IC50) in experiment [2] worked out at 1000 nM; in experiment [3], 210 nM; in experiment [4], 11000 nM.

One may read the IC50 as the concentration that inhibits the measured activity by half. Read a high IC50 as weaker potency in that assay.
